# Source: ChEMBL document CHEMBL1142811, “Design and syntheses of melanocortin subtype-4 receptor agonists. Part 2: discovery of the dihydropyridazinone motif” (Bioorg Med Chem Lett, 2005)
# What was measured:
# Melanocortin receptor 4 [1] = molecular target: T1, Melanocortin receptor 4 (Homo sapiens, UniProt P32245); test: Effective concentration at human melanocortin 4 receptor in cAMP release assay; format: functional
# Melanocortin receptor 4 [2] = molecular target: T1, Melanocortin receptor 4; test: Inhibition of [125I]-NDP- alpha-MSH binding to human melanocortin 4 receptor expressed in CHO cells; format: cell-based
# Melanocortin receptor 4 [3] = molecular target: T1, Melanocortin receptor 4; test: Maximum percentage of cAMP accumulation compared to alpha-MSH at human melanocortin 4 receptor at 10 uM; format: functional
# Melanocortin receptor 4 [4] = molecular target: T1, Melanocortin receptor 4; test: Maximum percentage of cAMP accumulation relative to alpha-MSH at human melanocortin 4 receptor at 10 uM; format: functional
# T1 sequence (P32245 whole entry): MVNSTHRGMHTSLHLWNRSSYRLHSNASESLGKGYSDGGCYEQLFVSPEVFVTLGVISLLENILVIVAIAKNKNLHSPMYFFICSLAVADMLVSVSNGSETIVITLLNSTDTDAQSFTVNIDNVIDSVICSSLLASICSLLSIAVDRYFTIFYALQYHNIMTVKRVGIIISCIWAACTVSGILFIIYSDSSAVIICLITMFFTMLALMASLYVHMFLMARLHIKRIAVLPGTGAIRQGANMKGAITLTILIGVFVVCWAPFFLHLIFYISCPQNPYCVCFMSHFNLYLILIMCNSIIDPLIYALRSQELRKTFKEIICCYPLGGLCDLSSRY
Compound,EC50 (Melanocortin receptor 4 [1]) [nM],IC50 (Melanocortin receptor 4 [2]) [nM],Max (Melanocortin receptor 4 [3]) [%],Max (Melanocortin receptor 4 [4]) [%]
COc1ccc(N2N=C(Sc3ccc(Cl)cc3)CC(CC[C@@H](C)NC(=O)[C@H]3CCNC[C@@H]3c3ccc(F)cc3)C2=O)cc1 (stereo in doubt; 62) [listing 1 of 2 here],480,540,,
COc1ccc(-n2nc(Sc3ccc(Cl)cc3)cc(CC[C@@H](C)NC(=O)[C@H]3CNCC[C@@H]3c3ccc(Cl)cc3Cl)c2=O)cc1,,3.2,2,
COc1ccc(-n2nc(Sc3ccc(Cl)cc3)cc(CC[C@@H](C)NC(=O)[C@H]3CCNC[C@@H]3c3ccc(C#N)cc3)c2=O)cc1,120,45,,81
COc1ccc(-n2nc(Sc3ccc(Cl)cc3)cc(CC[C@@H](C)NC(=O)[C@H]3CN(C)CC[C@@H]3c3ccc(F)cc3)c2=O)cc1,320,4.7,,59
COc1ccc([C@H]2CNC[C@@H]2C(=O)N[C@H](C)CCc2cc(Sc3ccc(Cl)cc3)nn(-c3ccc(OC)cc3)c2=O)cc1,430,19,,67
COc1ccc(-n2nc(Sc3ccc(Cl)cc3)cc(CC[C@@H](C)NC(=O)[C@H]3CCNC[C@@H]3Cc3ccc(F)cc3)c2=O)cc1,630,390,62,
COc1ccc(-n2nc(Sc3ccc(Cl)cc3)cc(CC[C@@H](C)NC(=O)[C@H]3CNCC[C@@H]3c3ccc(C)cc3)c2=O)cc1,1100,4.7,47,
COc1ccc(-n2nc(Sc3ccc(Cl)cc3)cc(CC[C@@H](C)NC(=O)[C@H]3CNCC[C@@H]3c3ccccc3)c2=O)cc1,,,,77
COc1ccc(-n2nc(Sc3ccc(Cl)cc3)cc(CC[C@@H](C)NC(=O)[C@H]3CNCC[C@@H]3c3ccccc3F)c2=O)cc1,550,13,,58
COc1ccc(-n2nc(Sc3ccc(Cl)cc3)cc(CC[C@@H](C)NC(=O)[C@H]3CNCCN3c3ccc(F)cc3)c2=O)cc1,,950,6,
COc1ccc(-n2nc(Sc3ccc(Cl)cc3)cc(CC[C@@H](C)NC(=O)[C@H]3CCNC[C@@H]3c3ccc(C(F)(F)F)cc3)c2=O)cc1,710,200,,75
COc1ccc(-n2nc(Sc3ccc(Cl)cc3)cc(CC[C@@H](C)NC(=O)[C@H]3CCNC[C@@H]3c3ccccc3)c2=O)cc1,,,,85
COc1ccc(-n2nc(Sc3ccc(Cl)cc3)cc(CC[C@@H](C)NC(=O)[C@H]3CNCC[C@@H]3c3ccsc3)c2=O)cc1,490,130,82,
COc1ccc(N2N=C(Sc3ccc(Cl)cc3)CC(CC[C@@H](C)NC(=O)[C@@H]3CCNC[C@H]3c3ccc(F)cc3)C2=O)cc1 (stereo in doubt; 64),2000,1300,,
COc1ccc(N2N=C(Sc3ccc(Cl)cc3)CC(CC[C@@H](C)NC(=O)[C@@H]3CNCC[C@H]3c3ccc(F)cc3)C2=O)cc1 (stereo in doubt; 60),,,20,
COc1ccc(-n2nc(Sc3ccc(Cl)cc3)cc(CC[C@@H](C)NC[C@@H]3CNCC[C@H]3c3ccc(F)cc3)c2=O)cc1,,290,9,
COc1ccc(N2N=C(Sc3ccc(Cl)cc3)CC(CC[C@@H](C)NC(=O)[C@H]3CCNC[C@@H]3c3ccc(F)cc3)C2=O)cc1 (stereo in doubt; 62) [listing 2 of 2 here],,,,100
COc1ccc(-n2nc(Sc3ccc(Cl)cc3)cc(CC[C@@H](C)NC(=O)[C@H]3CNCC[C@@H]3c3ccc4ccccc4c3)c2=O)cc1,,17,12,
"COc1ccc(N2N=C(Sc3ccc(Cl)cc3)CC(CC[C@@H](C)NC(=O)C3CNC[C@@H]3c3ccc(F)cc3)C2=O)cc1 (single isomer, unassigned; 66)",,,,90
COc1ccc(-n2nc(Sc3ccc(Cl)cc3)cc(CC[C@@H](C)NC(=O)[C@H]3CNCC[C@@H]3c3ccc(Cl)cc3)c2=O)cc1,210,2.4,,39
COc1ccc(N2N=C(Sc3ccc(Cl)cc3)CC(CC[C@@H](C)NC(=O)[C@H]3CNCC[C@@H]3c3ccc(F)cc3)C2=O)cc1 (stereo in doubt; 25) [listing 1 of 2 here],,,,72
COc1ccc(-n2nc(Sc3ccc(Cl)cc3)cc(CC[C@@H](C)NC(=O)[C@H]3CCNC[C@@H]3c3ccc(Cl)cc3Cl)c2=O)cc1,2400,36,,30
COc1ccc(-n2nc(Sc3ccc(Cl)cc3)cc(CC[C@@H](C)NC(=O)[C@H]3CCNC[C@@H]3c3ccc(Cl)cc3)c2=O)cc1,150,58,,101
COc1ccc(N2N=C(Sc3ccc(Cl)cc3)CC(CC[C@@H](C)NC(=O)[C@H]3CNCC[C@@H]3c3ccc(F)cc3)C2=O)cc1 (stereo in doubt; 25) [listing 2 of 2 here],390,26,,
"COc1ccc(N2N=C(Sc3ccc(Cl)cc3)CC(CC[C@@H](C)NC(=O)C3CNC[C@H]3c3ccc(F)cc3)C2=O)cc1 (single isomer, unassigned; 69)",740,430,,
"COc1ccc(N2N=C(Sc3ccc(Cl)cc3)CC(CC[C@@H](C)NC(=O)C3CNC[C@H]3c3ccc(F)cc3)C2=O)cc1 (single isomer, unassigned; 68)",,,,26
